Assays:
[1] = system: Copepodids (juvenile sea lice stage of Lepeophtheirus salmonis); experiment: Juvenile sea lice contact assay; conditions: Lepeophtheirus salmonis; 1 nM in seawater; ~24 h; read-out: Sea lice inhibition (% of dead+damaged copepodids)
Description: Copepodids (juvenile sea lice stage of Lepeophtheirus salmonis) were exposed to seawater spiked with declining concentrations of a test compound (dissolved in a DMSO sea-water mixture). Sea lice inhibition (% of dead+damaged copepodids) was assessed after approximately 24 hours of continuous exposure. The vitality of used parasites was confirmed in a negative (solvent) control group.

Rhipicephalus microplus = experiment: Cattle - efficacy against one-host tick; type: in vivo
Method in brief: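 Cattle infested whole-body with up to 3000 R. microplus larvae two or three times weekly around Day 0, then given 1 mg/kg subcutaneously or topically (spray or pour-on); controls got excipients only. Engorged females dropping were counted daily; efficacy by ADEQ per WAAVP guidelines, onset/duration as first/last day ≥80%.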

Dermacenter variabilis = experiment: Cattle - efficacy against multi-host ticks (Dermacenter variabilis); type: in vivo
Method in brief: (§1)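 Day 0 treatment at 5 mg/kg, given subcutaneously (NMP 60%/PEG300 40%) or as pour-on (DMA 92%/DEET 8%); controls received excipients only. Each animal carried 30–40 unfed adults per species (sex ratio 1:1), placed in an ear sleeve (R. appendiculatus) or a flank stockinet patch (D. variabilis), before and at several times after treatment; unattached ticks were removed at 2 days and excluded. Active means ≥80% efficacy.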

[2] = system: Ctenocephalides felis fleas; experiment: Dog - efficacy against fleas; type: in vivo; conditions: for therapeutic efficacy against fleas (active = efficacy ≥80 percent): D2
Method in brief: (§2)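 Beagles were infested with 80 C. felis fleas and 50 R. sanguineus or H. elliptica ticks two days before treatment (Day 0) and repeatedly thereafter. Test compound was given at 10 mg/kg orally in gelatin capsule, as spot-on (DMA 92%/DEET 8%) or subcutaneously (PEG 200 90%/water 10%). Controls received empty capsule plus spot-on excipients; ≥80 percent efficacy counted as active.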

[3] = system: Rhipicephalus appendiculatus; experiment: Cattle - efficacy against multi-host ticks (Rhipicephalus appendiculatus); type: in vivo
Method in brief: as §1

[4] = system: bed bugs (Cimex lectularius); experiment: Guinea pig - efficacy against bed bug; type: in vivo
Method in brief: (§3)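 Guinea pigs given 5 mg/kg test compound orally (gavage) or s.c. in 10% DMF/emulsifier plus 90% water for injection, with local co-infestations of Ornithodoros moubata juveniles and Cimex lectularius at several post-treatment times. Engorged parasites scored dead/damaged about 24 h after collection; % inhibition versus pretreatment baseline by modified Schneider-Orelli formula.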

[5] = system: Rhipicephalus sanguineus or Haemaphysalis elliptica ticks; experiment: Dog - efficacy against ticks; type: in vivo; conditions: for therapeutic efficacy against ticks (active = efficacy ≥80 percent): D2
Method in brief: as §2

[6] = system: juvenile soft ticks (Ornithodoros moubata); experiment: Guinea pig - efficacy against argaside tick; type: in vivo
Method in brief: as §3

[7] = system: Mobile stages of sea lice (pre-adults, adults of Lepeophtheirus salmonis); experiment: Adult sea lice contact assay; conditions: pre-adults/adults, assessed after ~1 and 24 h, read-out: EC50 (sea lice inhibition, dead+damaged)
Description: Mobile stages of sea lice (i.e., pre-adults, adults of Lepeophtheirus salmonis) were exposed to seawater spiked with declining concentrations of a test compound (dissolved in a PEG sea-water mixture). Sea lice inhibition (% of dead+damaged sea lice) was assessed after approximately 1 and 24 hours of continuous exposure in comparison to a negative (solvent) control group.

[8] = 1 mg/kg pour on in Imwitor 988+Miglyol 840
[9] = 1 mg/kg topical (Compound 4: spray solution; others: DMA 92%/DEET 8% pour-on)
[10] = 5 mg/kg subcutaneous, re-infested after 7 days
[11] = 5 mg/kg subcutaneous, re-infested after 14 days
[12] = 5 mg/kg subcutaneous, re-infested after 21 days
[13] = 5 mg/kg subcutaneous, re-infested after 28 days
[14] = 5 mg/kg subcutaneous, re-infested after 35 days
[15] = 5 mg/kg subcutaneous, therapeutic, Day 2
[16] = 5 mg/kg topical pour-on, re-infested after 7 days
[17] = 5 mg/kg topical pour-on, re-infested after 14 days
[18] = 5 mg/kg topical pour-on, re-infested after 21 days
[19] = 5 mg/kg topical pour-on, re-infested after 28 days
[20] = 5 mg/kg topical pour-on, re-infested after 35 days
[21] = 5 mg/kg topical pour-on, therapeutic, Day 2
[22] = 5 mg/kg, both administration routes (topical, subcutaneous)
[23] = 5 mg/kg subcutaneous, after 7 days
[24] = 5 mg/kg subcutaneous, after 10 days
[25] = 5 mg/kg, at least until Day 10, both administration routes (oral, subcutaneous)

O=C(Nc1ncc(F)cc1F)c1cc(NC(=O)[C@H]2[C@H](c3cc(Cl)cc(Cl)c3)C2(Cl)Cl)ccc1Cl [Compound 453]
immediate activity: activity against bed bugs (≥80% inhibition, killed+damaged) ([4]; 5 mg/kg oral, Day 0) | activity against bed bugs (≥80% inhibition, killed+damaged) ([4]; 5 mg/kg subcutaneous, Day 0) | activity against tick nymphs (≥80% inhibition, killed+damaged) ([6]; 5 mg/kg oral, Day 0) | activity against tick nymphs (≥80% inhibition, killed+damaged) ([6]; 5 mg/kg subcutaneous, Day 0)
100%: inhibition at 0.001 µM [1] | effective in treating existing tick infestations (Dermacenter variabilis; [22]) | effective in treating existing tick infestations [3, 22] | effective to control bed bugs [4, 25] | effective to control ticks [6, 25]
84 days: duration of efficacy (last Day with efficacy ≥80 percent) (Rhipicephalus microplus; 1 mg/kg pour on in Miglyol 840)
77 days: duration of efficacy (last Day with efficacy ≥80 percent) (Rhipicephalus microplus; [8])
82 days: duration of efficacy (last Day with efficacy ≥80 percent) (Rhipicephalus microplus; 1 mg/kg subcutaneous)
therapeutic efficacy: efficacy ≥80 percent against Dermacenter variabilis (Dermacenter variabilis; [15]) | efficacy ≥80 percent against Dermacenter variabilis (Dermacenter variabilis; [21]) | efficacy against fleas in dogs (conclusion) ([2]; 10 mg/kg) | efficacy ≥80 percent against Rhipicephalus appendiculatus [3, 15] | efficacy ≥80 percent against Rhipicephalus appendiculatus [3, 21] | efficacy against ticks in dogs (conclusion) ([5]; 10 mg/kg)
prophylactic efficacy: efficacy ≥80 percent against Dermacenter variabilis (Dermacenter variabilis; [10]) | efficacy ≥80 percent against Dermacenter variabilis (Dermacenter variabilis; [11]) | efficacy ≥80 percent against Dermacenter variabilis (Dermacenter variabilis; [12]) | efficacy ≥80 percent against Dermacenter variabilis (Dermacenter variabilis; [13]) | efficacy ≥80 percent against Dermacenter variabilis (Dermacenter variabilis; [14]) | efficacy ≥80 percent against Dermacenter variabilis (Dermacenter variabilis; [16]) | efficacy ≥80 percent against Dermacenter variabilis (Dermacenter variabilis; [17]) | efficacy ≥80 percent against Dermacenter variabilis (Dermacenter variabilis; [18]) | efficacy ≥80 percent against Dermacenter variabilis (Dermacenter variabilis; [19]) | efficacy ≥80 percent against Dermacenter variabilis (Dermacenter variabilis; [20]) | efficacy ≥80 percent against Rhipicephalus appendiculatus [3, 10] | efficacy ≥80 percent against Rhipicephalus appendiculatus [3, 11] | efficacy ≥80 percent against Rhipicephalus appendiculatus [3, 12] | efficacy ≥80 percent against Rhipicephalus appendiculatus [3, 13] | efficacy ≥80 percent against Rhipicephalus appendiculatus [3, 14] | efficacy ≥80 percent against Rhipicephalus appendiculatus [3, 16] | efficacy ≥80 percent against Rhipicephalus appendiculatus [3, 17] | efficacy ≥80 percent against Rhipicephalus appendiculatus [3, 18] | efficacy ≥80 percent against Rhipicephalus appendiculatus [3, 19] | efficacy ≥80 percent against Rhipicephalus appendiculatus [3, 20]
1 days: onset of efficacy (first Day with efficacy ≥80 percent) (Rhipicephalus microplus; [8])
63 days: duration of efficacy (last Day with efficacy ≥80 percent) (Rhipicephalus microplus; [9])
3 days: onset of efficacy (first Day with efficacy ≥80 percent) (Rhipicephalus microplus; 1 mg/kg subcutaneous) | onset of efficacy (first Day with efficacy ≥80 percent) (Rhipicephalus microplus; [9])
2 days: onset of efficacy (first Day with efficacy ≥80 percent) (Rhipicephalus microplus; 1 mg/kg pour on in Miglyol 840)
active: therapeutic efficacy against fleas (active = efficacy ≥80 percent) ([2]; 10 mg/kg oral) | therapeutic efficacy against fleas (active = efficacy ≥80 percent) ([2]; 10 mg/kg topical spot-on) | therapeutic efficacy against ticks (active = efficacy ≥80 percent) ([5]; 10 mg/kg oral) | therapeutic efficacy against ticks (active = efficacy ≥80 percent) ([5]; 10 mg/kg topical spot-on)
70/72: active against ticks up to (efficacy ≥80 percent) ([5]; 10 mg/kg topical spot-on, repeated infestations)
activity: activity against bed bugs (≥80% inhibition, killed+damaged) ([4]; 5 mg/kg oral, after 7 days) | activity against bed bugs (≥80% inhibition, killed+damaged) ([4]; 5 mg/kg oral, after 10 days) | activity against bed bugs (≥80% inhibition, killed+damaged) [4, 23] | activity against bed bugs (≥80% inhibition, killed+damaged) [4, 24] | activity against tick nymphs (≥80% inhibition, killed+damaged) ([6]; 5 mg/kg oral, after 7 days) | activity against tick nymphs (≥80% inhibition, killed+damaged) ([6]; 5 mg/kg oral, after 10 days) | activity against tick nymphs (≥80% inhibition, killed+damaged) [6, 23] | activity against tick nymphs (≥80% inhibition, killed+damaged) [6, 24]
≤ 10 nM: EC50 [7]

Reference: patent US20240315993A1, “ANTIPARASITIC COMPOUNDS” (Intervet Inc., priority 2021, published 2024)
